Test results published in patent US9738902B2, “Modified PYR/PYL receptors activated by ligands” (priority 2013, dated 2017).

Experiments:
Assay in all cases: Y2H Pocket Library Screen (HAB1, X-gal)
Assay type in all cases: cell-based
PYR1 K59R V164T = molecular target: T1, PYR1 K59R V164T (Arabidopsis thaliana, UniProt O49686, K59R/V164T)
T1 construct: expressed in transfected cells; host or cells: S. cerevisiae Y190 two-hybrid reporter strain
Procedure, shortened: (§1)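 Two-day, 30° C yeast two-hybrid spot assay: Y190 carrying PYR1 mutant and pACT-HAB1 on selective SD (–Leu, –Trp) plus 100 μM compound, scored by β-galactosidase X-gal stain of chloroform-lysed colonies.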

PYR1 K59R E141H = molecular target: T2, PYR1 K59R E141H (Arabidopsis thaliana, UniProt O49686, E141H/K59R)
T2 construct: expressed in transfected cells; host or cells: S. cerevisiae Y190 two-hybrid reporter strain
Procedure, shortened: as §1

PYR1 K59R N167Q = molecular target: T3, PYR1 K59R N167Q (Arabidopsis thaliana, UniProt O49686, K59R/N167Q)
T3 construct: expressed in transfected cells; host or cells: S. cerevisiae Y190 two-hybrid reporter strain
Procedure, shortened: as §1

PYR1 K59R M158I = molecular target: T4, PYR1 K59R M158I (Arabidopsis thaliana, UniProt O49686, K59R/M158I)
T4 construct: expressed in transfected cells; host or cells: S. cerevisiae Y190 two-hybrid reporter strain
Procedure, shortened: as §1

PYR1 K59R V164C = molecular target: T5, PYR1 K59R V164C (Arabidopsis thaliana, UniProt O49686, K59R/V164C)
T5 construct: expressed in transfected cells; host or cells: S. cerevisiae Y190
Procedure, shortened: as §1

PYR1 K59R M158A = molecular target: T6, PYR1 K59R M158A (Arabidopsis thaliana, UniProt O49686, K59R/M158A)
T6 construct: expressed in transfected cells; host or cells: S. cerevisiae Y190 two-hybrid reporter strain
T6 sequence (O49686 whole entry K59R/M158A): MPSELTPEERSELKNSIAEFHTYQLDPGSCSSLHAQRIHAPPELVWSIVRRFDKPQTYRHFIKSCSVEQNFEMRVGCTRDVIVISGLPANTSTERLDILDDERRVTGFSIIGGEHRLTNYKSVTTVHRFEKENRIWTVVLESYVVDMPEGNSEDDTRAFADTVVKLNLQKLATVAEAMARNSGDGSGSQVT
T6 sequence (Q9CAJ0 23-511 partner): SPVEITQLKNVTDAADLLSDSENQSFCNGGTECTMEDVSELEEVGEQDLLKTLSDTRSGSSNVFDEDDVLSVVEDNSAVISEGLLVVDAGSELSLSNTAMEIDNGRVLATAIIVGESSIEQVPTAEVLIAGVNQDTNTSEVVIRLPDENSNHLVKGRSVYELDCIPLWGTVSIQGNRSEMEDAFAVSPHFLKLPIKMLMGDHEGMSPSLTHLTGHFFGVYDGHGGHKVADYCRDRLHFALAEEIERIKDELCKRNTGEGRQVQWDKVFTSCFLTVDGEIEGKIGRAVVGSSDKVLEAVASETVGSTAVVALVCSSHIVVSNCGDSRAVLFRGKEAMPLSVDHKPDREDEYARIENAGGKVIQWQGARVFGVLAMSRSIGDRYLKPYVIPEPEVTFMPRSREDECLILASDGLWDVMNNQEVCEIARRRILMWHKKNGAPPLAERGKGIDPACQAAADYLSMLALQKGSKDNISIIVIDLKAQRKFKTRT
Procedure, shortened: as §1

PYR1 K59R A160T = molecular target: T7, PYR1 K59R A160T (Arabidopsis thaliana, UniProt O49686, A160T/K59R)
T7 construct: expressed in transfected cells; host or cells: S. cerevisiae Y190
Procedure, shortened: as §1

PYR1 K59R T162L = molecular target: T8, PYR1 K59R T162L (Arabidopsis thaliana, UniProt O49686, K59R/T162L)
T8 construct: expressed in transfected cells; host or cells: S. cerevisiae Y190
Procedure, shortened: as §1

PYR1 K59R N167S = molecular target: T9, PYR1 K59R N167S (Arabidopsis thaliana, UniProt O49686, K59R/N167S)
T9 construct: expressed in transfected cells; host or cells: S. cerevisiae Y190 two-hybrid reporter strain
T9 sequence (O49686 whole entry K59R/N167S): as the sequence (O49686 whole entry K59R/M158A) above, with A158M, N167S counted along it
T9 sequence (Q9CAJ0 23-511 partner): as the sequence (Q9CAJ0 23-511 partner) above
Procedure, shortened: as §1

PYR1 K59R E141Y = molecular target: T10, PYR1 K59R E141Y (Arabidopsis thaliana, UniProt O49686, E141Y/K59R)
T10 construct: expressed in transfected cells; host or cells: S. cerevisiae Y190 two-hybrid reporter strain
T10 sequence (O49686 whole entry K59R/E141Y): as the sequence (O49686 whole entry K59R/M158A) above, with E141Y, A158M counted along it
T10 sequence (Q9CAJ0 23-511, further chain): as the sequence (Q9CAJ0 23-511 partner) above
Procedure, shortened: as §1

PYR1 K59R N167C = molecular target: T11, PYR1 K59R N167C (Arabidopsis thaliana, UniProt O49686, K59R/N167C)
T11 construct: expressed in transfected cells; host or cells: S. cerevisiae Y190 two-hybrid reporter strain
Procedure, shortened: as §1

PYR1 K59R M158C = molecular target: T12, PYR1 K59R M158C (Arabidopsis thaliana, UniProt O49686, K59R/M158C)
T12 construct: expressed in transfected cells; host or cells: S. cerevisiae Y190 two-hybrid reporter strain
T12 sequence (O49686 whole entry K59R/M158C): as the sequence (O49686 whole entry K59R/M158A) above, with A158C counted along it
T12 sequence (Q9CAJ0 23-511, further chain): as the sequence (Q9CAJ0 23-511 partner) above
Procedure, shortened: as §1

PYR1 K59R V164E = molecular target: T13, PYR1 K59R V164E (Arabidopsis thaliana, UniProt O49686, K59R/V164E)
T13 construct: expressed in transfected cells; host or cells: S. cerevisiae Y190
T13 sequence (O49686 whole entry K59R/V164E): as the sequence (O49686 whole entry K59R/M158A) above, with A158M, V164E counted along it
T13 sequence (Q9CAJ0 23-511 partner): as the sequence (Q9CAJ0 23-511 partner) above
Procedure, shortened: as §1

PYR1 K59R M158T = molecular target: T14, PYR1 K59R M158T (Arabidopsis thaliana, UniProt O49686, K59R/M158T)
T14 construct: expressed in transfected cells; host or cells: S. cerevisiae Y190 two-hybrid reporter strain
Procedure, shortened: as §1

PYR1 K59R T162W = molecular target: T15, PYR1 K59R T162W (Arabidopsis thaliana, UniProt O49686, K59R/T162W)
T15 construct: expressed in transfected cells; host or cells: S. cerevisiae Y190
Procedure, shortened: as §1

PYR1 K59R A160S = molecular target: T16, PYR1 K59R A160S (Arabidopsis thaliana, UniProt O49686, A160S/K59R)
T16 construct: expressed in transfected cells; host or cells: S. cerevisiae Y190
Procedure, shortened: as §1

PYR1 K59R A160C = molecular target: T17, PYR1 K59R A160C (Arabidopsis thaliana, UniProt O49686, A160C/K59R)
T17 construct: expressed in transfected cells; host or cells: S. cerevisiae Y190
Procedure, shortened: as §1

PYR1 K59R N167A = molecular target: T18, PYR1 K59R N167A (Arabidopsis thaliana, UniProt O49686, K59R/N167A)
T18 construct: expressed in transfected cells; host or cells: S. cerevisiae Y190 two-hybrid reporter strain
Procedure, shortened: as §1

PYR1 K59R N167D = molecular target: T19, PYR1 K59R N167D (Arabidopsis thaliana, UniProt O49686, K59R/N167D)
T19 construct: expressed in transfected cells; host or cells: S. cerevisiae Y190 two-hybrid reporter strain
Procedure, shortened: as §1

PYR1 K59R L87P = molecular target: T20, PYR1 K59R L87P (Arabidopsis thaliana, UniProt O49686, K59R/L87P)
T20 construct: expressed in transfected cells; host or cells: S. cerevisiae Y190 yeast two-hybrid reporter strain
T20 sequence (O49686 whole entry K59R/L87P): as the sequence (O49686 whole entry K59R/M158A) above, with L87P, A158M counted along it
T20 sequence (Q9CAJ0 23-511 partner): as the sequence (Q9CAJ0 23-511 partner) above
Procedure, shortened: as §1

PYR1 K59R F108Q = molecular target: T21, PYR1 K59R F108Q (Arabidopsis thaliana, UniProt O49686, F108Q/K59R)
T21 construct: expressed in transfected cells; host or cells: S. cerevisiae Y190 yeast two-hybrid reporter strain
Procedure, shortened: as §1

PYR1 K59R A89W = molecular target: T22, PYR1 K59R A89W (Arabidopsis thaliana, UniProt O49686, A89W/K59R)
T22 construct: expressed in transfected cells; host or cells: S. cerevisiae Y190 yeast two-hybrid reporter strain
Procedure, shortened: as §1

PYR1 K59R F108L = molecular target: T23, PYR1 K59R F108L (Arabidopsis thaliana, UniProt O49686, F108L/K59R)
T23 construct: expressed in transfected cells; host or cells: S. cerevisiae Y190 yeast two-hybrid reporter strain
Procedure, shortened: as §1

PYR1 K59R F108A = molecular target: T24, PYR1 K59R F108A (Arabidopsis thaliana, UniProt O49686, F108A/K59R)
T24 construct: expressed in transfected cells; host or cells: S. cerevisiae Y190 yeast two-hybrid reporter strain
T24 sequence (O49686 whole entry K59R/F108A): as the sequence (O49686 whole entry K59R/M158A) above, with F108A, A158M counted along it
T24 sequence (Q9CAJ0 23-511 partner): as the sequence (Q9CAJ0 23-511 partner) above
Procedure, shortened: as §1

PYR1 K59R S122G = molecular target: T25, PYR1 K59R S122G (Arabidopsis thaliana, UniProt O49686, K59R/S122G)
T25 construct: expressed in transfected cells; host or cells: S. cerevisiae Y190 two-hybrid reporter strain
Procedure, shortened: as §1

PYR1 K59R F108N = molecular target: T26, PYR1 K59R F108N (Arabidopsis thaliana, UniProt O49686, F108N/K59R)
T26 construct: expressed in transfected cells; host or cells: S. cerevisiae Y190 yeast two-hybrid reporter strain
Procedure, shortened: as §1

PYR1 K59R F108I = molecular target: T27, PYR1 K59R F108I (Arabidopsis thaliana, UniProt O49686, F108I/K59R)
T27 construct: expressed in transfected cells; host or cells: S. cerevisiae Y190 yeast two-hybrid reporter strain
Procedure, shortened: as §1

PYR1 K59R F159C = molecular target: T28, PYR1 K59R F159C (Arabidopsis thaliana, UniProt O49686, F159C/K59R)
T28 construct: expressed in transfected cells; host or cells: S. cerevisiae Y190 two-hybrid reporter strain
Procedure, shortened: as §1

Measured: Threshold

N#Cc1c(Cl)cccc1Cl [Dichlobenil, dichlobenil]
not listed: PYR1 K59R F108Q | PYR1 K59R A89W | PYR1 K59R F108L | PYR1 K59R F108A | PYR1 K59R S122G | PYR1 K59R F108N | PYR1 K59R F108I | PYR1 K59R F159C
100 µM: all other assays above

C#CCOc1ccc(CCNC(=O)C(OCC#C)c2ccc(Cl)cc2)cc1OC (stereo not shown) [Mandipropamid, mandipropamid]
100 µM: PYR1 K59R F108Q | PYR1 K59R A89W | PYR1 K59R F108L | PYR1 K59R F108A | PYR1 K59R S122G | PYR1 K59R F108N | PYR1 K59R F108I | PYR1 K59R F159C
